The test system of series [1] is Mus musculus. Briefly: Neurotoxicity in Mus musculus (mouse) assessed as motor impairment at 30 to 300 mg/kg, ip measured at 0.5 hr by rotarod test. Set-up: dose 30-300 mg/kg, route intraperitoneal. To be noted: in vivo. It is filed as toxicity, organism-based. In general terms: In the rotarod test animals must keep their balance on a rotating rod.
For series [2], the system named is Mus musculus. Put plainly: Anticonvulsant activity in Mus musculus (mouse) assessed as protection against maximal-electric shock-induced seizures at 30 to 300 mg/kg, ip measured at 4 hr. It is filed as functional, organism-based.
Series [3] has as its system Mus musculus. Put plainly: Anticonvulsant activity in Mus musculus (mouse) assessed as protection against maximal-electric shock-induced seizures at 30 to 300 mg/kg, ip measured at 0.5 hr. It is filed as functional, organism-based.
Series [4] deals with Mus musculus. Put plainly: Neurotoxicity in Mus musculus (mouse) assessed as motor impairment at 30 to 300 mg/kg, ip measured at 4 hr by rotarod test. It is filed as toxicity, organism-based. Set-up: dose 30-300 mg/kg, route intraperitoneal. The note with it: in vivo.
Series [5] deals with Mus musculus. Put plainly: Anticonvulsant activity in Mus musculus (mouse) assessed as protection against scMET-induced clonic seizures at 30 to 300 mg/kg, ip measured at 0.5 to 4 hr. It is filed as functional, organism-based.
The subject of series [6] is Mus musculus. Put plainly: Anticonvulsant activity in Mus musculus (mouse) assessed as protection against 6 Hz psychomotor-induced clonic seizures at 100 mg/kg, i.p. measured at 0.25 hr relative to control. Format: functional.
In series [7] the test system is Mus musculus. Put plainly: Anticonvulsant activity in i.p. dosed Mus musculus (mouse) assessed as protection against maximal-electric shock-induced seizures measured at 4 hr. The note with it: ip, read-out: MED. It is filed as functional.
Series [8] has as its system Mus musculus. Put plainly: Neurotoxicity in Mus musculus (mouse) assessed as motor impairment at 100 mg/kg, ip measured at 0.5 hr by rotarod test relative to control. It is filed as toxicity, organism-based. Set-up: dose 100 mg/kg, route intraperitoneal. To be noted: in vivo.
Series [9] deals with Mus musculus. Put plainly: Neurotoxicity in Mus musculus (mouse) assessed as motor impairment at 100 mg/kg, ip measured at 0.25 hr by rotarod test relative to control. Format: toxicity, organism-based. Set-up: dose 100 mg/kg, route intraperitoneal. To be noted: in vivo.
Series [10] has as its system Mus musculus. Put plainly: Neurotoxicity in Mus musculus (mouse) assessed as motor impairment at 100 mg/kg, ip measured at 4 hr by rotarod test relative to control. Format: toxicity, organism-based. Set-up: dose 100 mg/kg, route intraperitoneal. To be noted: in vivo.
In series [11] the test system is Mus musculus. Briefly: Anticonvulsant activity in Mus musculus (mouse) assessed as protection against 6 Hz psychomotor-induced clonic seizures at 100 mg/kg, ip measured at 2 hr relative to control. Format: functional.
Series [12] deals with Mus musculus. Briefly: Neurotoxicity in Mus musculus (mouse) assessed as motor impairment at 100 mg/kg, ip measured at 1 hr by rotarod test relative to control. It is filed as toxicity, organism-based. Set-up: dose 100 mg/kg, route intraperitoneal. To be noted: in vivo.
Series [13] concerns Mus musculus. Put plainly: Anticonvulsant activity in Mus musculus (mouse) assessed as protection against 6 Hz psychomotor-induced clonic seizures at 100 mg/kg, i.p. measured at 4 hr relative to control. Format: functional.
For series [14], the system named is Mus musculus. Briefly: Anticonvulsant activity in Mus musculus (mouse) assessed as protection against 6 Hz psychomotor-induced clonic seizures at 100 mg/kg, i.p. measured at 0.5 hr relative to control. It is filed as functional.
Series [15] relates to Mus musculus. Put plainly: Anticonvulsant activity in Mus musculus (mouse) assessed as protection against 6 Hz psychomotor-induced clonic seizures at 100 mg/kg, i.p. measured at 1 hr relative to control. Format: functional.
Series [16] relates to Mus musculus. Put plainly: Neurotoxicity in Mus musculus (mouse) assessed as motor impairment at 100 mg/kg, ip measured at 2 hr by rotarod test relative to control. Set-up: dose 100 mg/kg, route intraperitoneal. Format: toxicity, organism-based. The note with it: in vivo.
Series [17] has as its system Mus musculus. Briefly: Anticonvulsant activity in i.p. dosed Mus musculus (mouse) assessed as protection against maximal-electric shock-induced seizures measured at 0.5 hr. Format: functional. To be noted: ip, read-out: MED.
Series [18] relates to Mus musculus. Put plainly: Neurotoxicity in i.p. dosed Mus musculus (mouse) assessed as motor impairment measured at 4 hr by rotarod test. It is filed as toxicity, organism-based. The note with it: in vivo, ip.

Calls of active or inactive are those of the source. The calls are words filed in the database; no cut-off is given here.

For `COc1cc(/C=N/NC(=O)Nc2ccc(C)cc2)ccc1O`, the Activity entry in series [1] and in series [4] was “Non-toxic” throughout. The result in series [2], in series [3] and in series [5] was inactive.
On to `O=C(N/N=C/c1ccc(O)cc1)Nc1ccccc1Cl`, for which the Activity is recorded as 50% in series [6] (route intraperitoneal); “Non-toxic” in series [8]; “Non-toxic” in series [1]; “Non-toxic” in series [9]; “Non-toxic” in series [10]; 50% in [11] (route intraperitoneal). Also, the Activity entry in [12] is “Non-toxic”; in [4] it was “Non-toxic”; in series [14] (route intraperitoneal), 100%; in [15] (route intraperitoneal), 50%; in series [16] it was “Non-toxic”. In addition, the minimal effective dose in series [7] was 100 mg/kg. In addition, the result in [13], in [3] and in series [5] was inactive.
Regarding `O=C(NN=C1CCCC1)Nc1ccccc1Cl`, the Activity result in [1] and in series [4] was “Non-toxic” in each case. Besides, the outcome in series [2], in [3] and in series [5] was inactive.
In the case of `C/C(=N\NC(=O)Nc1ccc(C)cc1)c1ccccc1O`, the Activity entry in [1] and in series [4] was “Non-toxic” each time. In addition, the outcome in series [2], in [3] and in [5] was inactive.
For `C/C(=N\NC(=O)Nc1ccccc1Cl)c1ccc(Cl)cc1`, the outcome in [6], in series [11], in [13], in [3], in [14] and in [5] was inactive. Further, the minimal effective dose in series [7] turned out to be 100 mg/kg. Also, the Activity entry in [8], in [1], in series [9], in series [10], in [12] and in [4] was “Non-toxic” throughout. For the same compound, the Activity in series [15] (route intraperitoneal) is reported as 50%; in series [16], “Non-toxic”.
Consider `Cc1ccc(NC(=O)N/N=C/c2cccc(O)c2)cc1`, for which the Activity in series [6] (route intraperitoneal) is 50%; in series [8], “Non-toxic”; in [1] it was “Non-toxic”; in [9], “Non-toxic”; in series [10], “Non-toxic”; in series [11] (route intraperitoneal) it was 25%. Further, the Activity entry in series [12] is given as “Non-toxic”; in [4], “Non-toxic”; in series [14] (route intraperitoneal), 25%; in series [16], “Non-toxic”. The outcome in [2], in [13], in series [3], in [15] and in [5] was inactive.
Regarding `O=C(N/N=C/c1ccc(Cl)cc1Cl)Nc1ccccc1Cl`, the Activity result in series [1] and in series [4] was “Non-toxic” in each case. In addition, the outcome in series [2], in series [3] and in series [5] was inactive.
For the compound `COc1ccc(/C(C)=N/NC(=O)Nc2ccccc2Cl)cc1`, the minimal effective dose in series [7] and in [17] was 300 mg/kg throughout. Also, the Activity entry in series [1] is “Non-toxic”. The MTC in series [18] came out at 300 mg/kg. Also, in [5], the result was inactive.
In the case of `NNC(=O)Nc1ccccc1Cl`, the Activity was 100% in [6] (route intraperitoneal); 25% in [8]; “Non-toxic” in series [1]; 25% in series [9]; 25% in [10]; 100% in series [11] (route intraperitoneal). For the same compound, the Activity in series [12] is listed as 25%; in [4], “Non-toxic”; in [14] (route intraperitoneal) it was 100%; in series [15] (route intraperitoneal), 100%; in [16], “Non-toxic”. The result in [2], in series [3] and in series [5] was inactive. In addition, the result in series [13] was Active.
With `Cc1ccc(NC(=O)N/N=C/c2ccccc2Cl)cc1`, the Activity result in [1] and in series [4] was “Non-toxic” each time. The result in series [2], in [3] and in [5] was inactive.
For `CC(=O)C/C(C)=N/NC(=O)Nc1ccc(C)cc1`, the Activity entry in series [1] and in [4] was “Non-toxic” in each case. Besides, the result in series [2], in series [3] and in [5] was inactive.
As for `C/C(=N\NC(=O)Nc1ccccc1Cl)c1ccc(C)cc1`, the Activity result in series [1] and in [4] was “Non-toxic” throughout. The outcome in [2], in [3] and in series [5] was inactive.
For `O=C(N/N=C/c1ccc(Cl)cc1)Nc1ccccc1Cl`, the Activity entry in series [1] and in series [4] was “Non-toxic” in each case. The result in series [2], in series [3] and in series [5] was inactive.
On to `COc1ccc(/C=N/NC(=O)Nc2ccccc2Cl)cc1OC`, for which the Activity in series [6] (route intraperitoneal) is recorded as 25%; in series [8], “Non-toxic”; in series [1], “Non-toxic”; in series [9], “Non-toxic”; in [10], “Non-toxic”; in [11] (route intraperitoneal) it was 25%. Further, the Activity result is on record as “Non-toxic” in series [12], 25% in [13] (route intraperitoneal), “Non-toxic” in series [4] and “Non-toxic” in series [16]. Also, in series [7], the minimal effective dose was determined as 100 mg/kg. The result in series [3], in series [14], in [15] and in [5] was inactive.
For `Cc1ccc(NC(=O)NN=C2CCCCC2)cc1`, the Activity is on record as 25% in series [6] (route intraperitoneal); “Non-toxic” in series [8]; “Non-toxic” in [1]; “Non-toxic” in series [9]; “Non-toxic” in series [10]; “Non-toxic” in series [12]. Also, the Activity was 25% in series [13] (route intraperitoneal); “Non-toxic” in series [4]; 100% in series [14] (route intraperitoneal); 50% in series [15] (route intraperitoneal); “Non-toxic” in series [16]. In series [7], the minimal effective dose turned out to be 300 mg/kg. Further, the outcome in [11], in [3] and in series [5] was inactive.
For the compound `O=C(N/N=C/c1cccc(O)c1)Nc1ccccc1Cl`, the Activity result in series [1] and in series [4] was “Non-toxic” each time. Also, the outcome in series [2], in [3] and in series [5] was inactive.
As to `O=C(N/N=C/c1ccco1)Nc1ccccc1Cl`, the Activity result in [1] and in series [4] was “Non-toxic” each time. Also, the outcome in series [2], in series [3] and in [5] was inactive.
As to `C/C(=N\NC(=O)Nc1ccc(C)cc1)c1ccc(O)cc1O`, the Activity entry in [1] and in series [4] was “Non-toxic” throughout. Further, the outcome in series [2], in series [3] and in series [5] was inactive.

Source of the values: ChEMBL document CHEMBL3045097, “Synthesis and anticonvulsant evaluation of 2-(substituted benzylidene/ethylidene)-N-(substituted phenyl)hydrazinecarboxamide analogues” (Med Chem Res, 2013).
